Consider 44 compounds from patent US7414048B2, “4,5-dihydro-isoxazole derivatives and their pharmaceutical use” (Janssen Pharmaceutica, N.V., priority 1998, dated 2008).

The subject of the first assay is T cell blast formation in human blood. Description: In vitro inhibition of T cell blast formation in human blood (human whole blood blast formation, PHA stimulated, flow cytometry). Format: cell-based. Conditions: Test Dose 1 × 10^−5 (unit not given), 72 hours, mean where multiple measurements. Here is the method: Cells are collected after a 72 hours culture period at 37° C., supernatant is removed by centrifugation and red blood cells are lysed by a hypotonic buffer. The remaining white blood cells are collected in PBS containing propidium iodide. The blast formation is analyzed using a benchtop flow cytometer (Cytoron, Ortho) equipped with an argon-ion laser. […] When multiple measurements were performed, a mean value was calculated for the percentage inhibition of T cell blast formation.
Background: In flow cytometry, cells or beads pass a laser one at a time.
Consider `O=C(Nc1cccc2ccccc12)c1ccc(NC(=O)C2CC(c3cccnc3)=NO2)cc1` (centres unmarked) [Compound 266], for which the “% Inhibition of T cell blast formation” value amounted to 85%.

Still in this assay, the particulars now being: Test Dose 1 × 10^−6 (unit not given), 72 hours, mean where multiple measurements.
For `CCOC(=O)NC(c1ccccc1)c1ccc(NC(=O)C2CC(c3cccnc3)=NO2)cc1` (centres unmarked) [Compound 131], the “% Inhibition of T cell blast formation” value is on record as 95%.
On the same count and under the same terms, then `CN1CCC(N(C)CC(=O)NC(c2ccccc2)c2ccc(NC(=O)C3CC(c4cccnc4)=NO3)cc2)CC1` (centres unmarked) [Compound 146], with 95%; and `CCCC(=O)NC(c1ccccc1)c1ccc(NC(=O)C2CC(c3cccnc3)=NO2)cc1` (centres unmarked) [Compound 156], with 56%; and `O=C(Cc1ccccc1)NC(c1ccccc1)c1ccc(NC(=O)C2CC(c3cccnc3)=NO2)cc1` (centres unmarked) [Compound 166], with 66%.
As to `CCOc1ccc(C)c(NC(c2ccccc2)c2ccc(NC(=O)C3CC(c4cccnc4)=NO3)cc2)c1` (centres unmarked) [Compound 172], the “% Inhibition of T cell blast formation” value is 35%.
On to `CC(=O)Nc1ccccc1NC(c1ccccc1)c1ccc(NC(=O)C2CC(c3cccnc3)=NO2)cc1` (centres unmarked) [Compound 174], for which the “% Inhibition of T cell blast formation” value was found to be 42%.
With `Cc1cccc(NC(c2ccccc2)c2ccc(NC(=O)C3CC(c4cccnc4)=NO3)cc2)c1C` (centres unmarked) [Compound 175], the “% Inhibition of T cell blast formation” value came to 42%.
For `NC(=O)c1ccccc1NC(c1ccccc1)c1ccc(NC(=O)C2CC(c3cccnc3)=NO2)cc1` (centres unmarked) [Compound 192], the “% Inhibition of T cell blast formation” value was determined as 72%.
Take `O=C(Nc1ccc(C(Nc2ccccc2O)c2ccccc2)cc1)C1CC(c2cccnc2)=NO1` (centres unmarked) [Compound 203]: the “% Inhibition of T cell blast formation” value amounted to 62%.
With `NC(c1ccccc1)c1ccc(NC(=O)[C@@H]2CC(c3cccnc3)=NO2)cc1` (stereo partly drawn) [Compound 205, [5S-(A)]-N-[4-(aminophenylmethyl)phenyl]4,5-dihydro-3-(3-pyridinyl)-5-isoxazolecarboxamide], the “% Inhibition of T cell blast formation” value was 73%.
As for `NC(c1ccccc1)c1ccc(NC(=O)[C@@H]2CC(c3cccnc3)=NO2)cc1` (stereo partly drawn) [Compound 206, [5S-(B)]-N-[4-(aminophenylmethyl)phenyl]4,5-dihydro-3-(3-pyridinyl)-5-isoxazolecarboxamide], the “% Inhibition of T cell blast formation” value worked out at 66%.
Same read-out and setting: then `O=C(Nc1ccc(C(Nc2cccc(F)c2)c2ccccc2)cc1)C1CC(c2cccnc2)=NO1` (centres unmarked) [Compound 214], with 62%.
Turning to `O=C(Nc1ccc(C(Nc2cccc(Cl)c2)c2ccccc2)cc1)C1CC(c2cccnc2)=NO1` (centres unmarked) [Compound 216], the “% Inhibition of T cell blast formation” value came out at 70%.
Regarding `O=C(Nc1ccc(C(c2ccccc2)N2CCOCC2)cc1)C1CC(c2cccnc2)=NO1` (centres unmarked) [Compound 221], the “% Inhibition of T cell blast formation” value is on record as 63%.
As to `O=C(NCCc1ccccc1)c1ccc(NC(=O)C2CC(c3cccnc3)=NO2)cc1` (centres unmarked) [Compound 258], the “% Inhibition of T cell blast formation” value was 59%.
On to `CC(C)(NC(=O)c1ccc(NC(=O)C2CC(c3cccnc3)=NO2)cc1)c1ccccc1` (centres unmarked) [Compound 259], for which the “% Inhibition of T cell blast formation” value worked out at 51%.
Take `O=C(Nc1cccnc1)c1ccc(NC(=O)C2CC(c3cccnc3)=NO2)cc1` (centres unmarked) [Compound 263]: the “% Inhibition of T cell blast formation” value was 59%.
Still for that read-out and setting: then `O=C(NCCc1ccco1)c1ccc(NC(=O)C2CC(c3cccnc3)=NO2)cc1` (centres unmarked) [Compound 268], with 58%; and `O=C(NCc1ccccc1Br)c1ccc(NC(=O)C2CC(c3cccnc3)=NO2)cc1` (centres unmarked) [Compound 269], with 67%; and `O=C(NCc1ccc(F)cc1)c1ccc(NC(=O)C2CC(c3cccnc3)=NO2)cc1` (centres unmarked) [Compound 270], with 71%.
On the same count and under the same terms, then `COc1cccc(CNC(=O)c2ccc(NC(=O)C3CC(c4cccnc4)=NO3)cc2)c1` (centres unmarked) [Compound 272], with 67%.
For the compound `Cc1ccc(CNC(=O)c2ccc(NC(=O)C3CC(c4cccnc4)=NO3)cc2)cc1` (centres unmarked) [Compound 273], the “% Inhibition of T cell blast formation” value is recorded as 62%.
For `COc1ccc(CNC(=O)c2ccc(NC(=O)C3CC(c4cccnc4)=NO3)cc2)c(OC)c1` (centres unmarked) [Compound 274], the “% Inhibition of T cell blast formation” value came to 71%.
In the case of `O=C(NCc1c(F)cccc1F)c1ccc(NC(=O)C2CC(c3cccnc3)=NO2)cc1` (centres unmarked) [Compound 279], the “% Inhibition of T cell blast formation” value was determined as 74%.
Consider `COc1cc(CNC(=O)c2ccc(NC(=O)C3CC(c4cccnc4)=NO3)cc2)cc(OC)c1OC` (centres unmarked) [Compound 281], for which the “% Inhibition of T cell blast formation” value is reported as 74%.
In the case of `COc1ccccc1CNC(=O)c1ccc(NC(=O)C2CC(c3cccnc3)=NO2)cc1` (centres unmarked) [Compound 285], the “% Inhibition of T cell blast formation” value was 72%.
With `O=C(NCc1cccc(C(F)(F)F)c1)c1ccc(NC(=O)C2CC(c3cccnc3)=NO2)cc1` (centres unmarked) [Compound 288], the “% Inhibition of T cell blast formation” value came to 53%.
The same measure, in the same setting: with `O=C(NCc1cccs1)c1ccc(NC(=O)C2CC(c3cccnc3)=NO2)cc1` (centres unmarked) [Compound 289] the figure was 64%; with `COc1ccc(CNC(=O)c2ccc(NC(=O)C3CC(c4cccnc4)=NO3)cc2)cc1` (centres unmarked) [Compound 290], 67%; with `O=C(NCc1cnc2ccccc2c1)c1ccc(NC(=O)C2CC(c3cccnc3)=NO2)cc1` (centres unmarked) [Compound 291], 78%.
Take `CON=C(c1ccccc1)c1ccc(NC(=O)C2CC(c3cccnc3)=NO2)cc1` (centres unmarked) [Compound 303]: the “% Inhibition of T cell blast formation” value was determined as 78%.
With `NC(=O)C(c1ccc(Cl)cc1)c1ccc(NC(=O)C2CC(c3cccnc3)=NO2)cc1Cl` (centres unmarked) [Compound 309], the “% Inhibition of T cell blast formation” value is recorded as 92%.

Still in this assay, the particulars now being: Test Dose 3 × 10^−7 (unit not given), 72 hours, mean where multiple measurements.
Turning to `CN(CCC1OCCO1)C(c1ccccc1)c1ccc(NC(=O)C2CC(c3cccnc3)=NO2)cc1` (centres unmarked) [Compound 122], the “% Inhibition of T cell blast formation” value was found to be 36%.
Turning to `O=C(NC(c1ccccc1)c1ccc(NC(=O)C2CC(c3cccnc3)=NO2)cc1)c1c(F)cccc1F` (centres unmarked) [Compound 158], the “% Inhibition of T cell blast formation” value came to 64%.
As to `Cc1cc(NC(c2ccccc2)c2ccc(NC(=O)C3CC(c4cccnc4)=NO3)cc2)no1` (centres unmarked) [Compound 162], the “% Inhibition of T cell blast formation” value was determined as 46%.
With `CN(CC(N)=O)C(c1ccccc1)c1ccc(NC(=O)C2CC(c3cccnc3)=NO2)cc1` (centres unmarked) [Compound 163], the “% Inhibition of T cell blast formation” value is given as 56%.
Turning to `O=C(Nc1ccc(C(Nc2ccc(C(F)(F)F)cc2Br)c2ccccc2)cc1)C1CC(c2cccnc2)=NO1` (centres unmarked) [Compound 218], the “% Inhibition of T cell blast formation” value turned out to be 33%.
With `CN(C)c1ccc(CNC(=O)c2ccc(NC(=O)C3CC(c4cccnc4)=NO3)cc2)cc1` (centres unmarked) [Compound 286], the “% Inhibition of T cell blast formation” value is given as 49%.
Same read-out and setting: then `Nc1cccc(F)c1CNC(=O)c1ccc(NC(=O)C2CC(c3cccnc3)=NO2)cc1` (centres unmarked) [Compound 292], with 40%.
Regarding `O=C(NCc1ccc2c(c1)OCO2)c1ccc(NC(=O)C2CC(c3cccnc3)=NO2)cc1` (centres unmarked) [Compound 295], the “% Inhibition of T cell blast formation” value is 35%.
Still for that read-out and setting: with `O=C(Nc1ccc(C(=O)N2CCC(O)(Cc3ccccc3)CC2)cc1)C1CC(c2cccnc2)=NO1` (centres unmarked) [Compound 304] the figure was 36%.
`O=C(Nc1ccc(C(=O)N2CCC(c3ccccc3)CC2)cc1)C1CC(c2cccnc2)=NO1` (centres unmarked) [Compound 307]: the “% Inhibition of T cell blast formation” value was 41%.
Consider `NC(=O)C(c1ccc(Cl)cc1Cl)c1ccc(NC(=O)C2CC(c3cccnc3)=NO2)cc1Cl` (centres unmarked) [Compound 310], for which the “% Inhibition of T cell blast formation” value is reported as 64%.
